Experimental data taken from PMC12373846, “Hemoglobin as a pseudoperoxidase and drug target for oxidative stress-related diseases” (Signal Transduction and Targeted Therapy, 2025).

Tests used:
[1] = system: aged C57BL/6J mice; experiment: Survival of aging mice; type: in vivo, mouse
Procedure: Aged 1-year-old C57BL/6J animals were purchased from Janvier Labs (France) and quarantined in the IBS Animal Facility for 2 weeks before the experiment. The animals were weighed, and their water consumption (in grams) was monitored for 3 days before the appropriate drug concentration was calculated for each dose group. The animals were randomly assigned to the drug/control and dose groups. […] The drug concentration (in water) was modified on the basis of changes in animal weight and corresponding water consumption every 3 months. Basal body temperature and body weight were monitored every 2 weeks. The care and handling of the animals were performed in accordance with the guidelines of the Institutional Animal Care and Use Committee of IBS (Daejeon, South Korea).

[2] = target: T1, ULK2 (Homo sapiens, UniProt Q8IYT8); experiment: KINOMEscan; type: binding; details: 10000 nM; read-out: Percent Control
T1 construct: purchased DiscoverX KINOMEscan scanEDGE; Eurofins Cerep SafetyScreen87
T1 sequence (Q8IYT8 whole entry): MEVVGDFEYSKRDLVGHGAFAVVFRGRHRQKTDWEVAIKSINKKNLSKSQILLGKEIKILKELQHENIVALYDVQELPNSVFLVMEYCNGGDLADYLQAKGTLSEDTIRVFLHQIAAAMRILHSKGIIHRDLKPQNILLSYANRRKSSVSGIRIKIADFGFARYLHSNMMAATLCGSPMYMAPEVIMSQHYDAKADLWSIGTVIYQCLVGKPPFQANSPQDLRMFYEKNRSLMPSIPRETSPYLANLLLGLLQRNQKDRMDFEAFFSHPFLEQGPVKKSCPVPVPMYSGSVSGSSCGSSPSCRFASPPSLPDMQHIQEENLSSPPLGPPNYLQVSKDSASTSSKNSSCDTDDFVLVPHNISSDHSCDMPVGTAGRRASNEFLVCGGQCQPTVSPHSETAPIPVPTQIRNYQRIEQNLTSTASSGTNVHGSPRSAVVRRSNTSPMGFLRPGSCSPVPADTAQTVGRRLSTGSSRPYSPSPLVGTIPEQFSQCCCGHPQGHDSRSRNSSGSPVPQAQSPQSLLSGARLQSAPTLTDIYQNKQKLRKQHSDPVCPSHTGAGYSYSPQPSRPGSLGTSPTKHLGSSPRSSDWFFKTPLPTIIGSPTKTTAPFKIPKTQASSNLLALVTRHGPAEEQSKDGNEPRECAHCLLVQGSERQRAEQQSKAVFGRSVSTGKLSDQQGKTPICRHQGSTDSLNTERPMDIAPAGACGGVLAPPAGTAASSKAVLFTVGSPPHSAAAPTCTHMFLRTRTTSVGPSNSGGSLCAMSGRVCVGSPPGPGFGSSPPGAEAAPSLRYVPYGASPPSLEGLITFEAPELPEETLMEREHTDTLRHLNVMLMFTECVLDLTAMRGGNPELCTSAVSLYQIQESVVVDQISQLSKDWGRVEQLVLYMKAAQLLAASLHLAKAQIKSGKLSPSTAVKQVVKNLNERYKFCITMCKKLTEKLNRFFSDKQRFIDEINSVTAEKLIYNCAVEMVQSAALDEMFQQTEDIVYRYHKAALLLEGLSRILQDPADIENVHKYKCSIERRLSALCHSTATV
Procedure: (§1) The possibility of KDS12025 on kinase off-target, the KINOMEscan panel of scanEDGE assay was conducted in DiscoverX (CA, USA) using a site-directed competition binding with the test compounds. The assay results are given in Supplementary Table 4 and experimental information is available on the DiscoverX web page (www.discoverx.com). Moreover, the Delta SafetyScreen87 panel assay was conducted in Eurofins Discovery (Cerep, France). The assay results are given in Supplementary Table 5 and experimental information is available on the DiscoverX web page (https://www.eurofinsdiscoveryservices.com).

[3] = target: T2, ERBB2 (Homo sapiens, UniProt P04626); experiment: KINOMEscan; type: binding; details: 10000 nM; read-out: Percent Control
T2 construct: purchased DiscoverX KINOMEscan scanEDGE; Eurofins Cerep SafetyScreen87
T2 sequence (P04626 23-1255): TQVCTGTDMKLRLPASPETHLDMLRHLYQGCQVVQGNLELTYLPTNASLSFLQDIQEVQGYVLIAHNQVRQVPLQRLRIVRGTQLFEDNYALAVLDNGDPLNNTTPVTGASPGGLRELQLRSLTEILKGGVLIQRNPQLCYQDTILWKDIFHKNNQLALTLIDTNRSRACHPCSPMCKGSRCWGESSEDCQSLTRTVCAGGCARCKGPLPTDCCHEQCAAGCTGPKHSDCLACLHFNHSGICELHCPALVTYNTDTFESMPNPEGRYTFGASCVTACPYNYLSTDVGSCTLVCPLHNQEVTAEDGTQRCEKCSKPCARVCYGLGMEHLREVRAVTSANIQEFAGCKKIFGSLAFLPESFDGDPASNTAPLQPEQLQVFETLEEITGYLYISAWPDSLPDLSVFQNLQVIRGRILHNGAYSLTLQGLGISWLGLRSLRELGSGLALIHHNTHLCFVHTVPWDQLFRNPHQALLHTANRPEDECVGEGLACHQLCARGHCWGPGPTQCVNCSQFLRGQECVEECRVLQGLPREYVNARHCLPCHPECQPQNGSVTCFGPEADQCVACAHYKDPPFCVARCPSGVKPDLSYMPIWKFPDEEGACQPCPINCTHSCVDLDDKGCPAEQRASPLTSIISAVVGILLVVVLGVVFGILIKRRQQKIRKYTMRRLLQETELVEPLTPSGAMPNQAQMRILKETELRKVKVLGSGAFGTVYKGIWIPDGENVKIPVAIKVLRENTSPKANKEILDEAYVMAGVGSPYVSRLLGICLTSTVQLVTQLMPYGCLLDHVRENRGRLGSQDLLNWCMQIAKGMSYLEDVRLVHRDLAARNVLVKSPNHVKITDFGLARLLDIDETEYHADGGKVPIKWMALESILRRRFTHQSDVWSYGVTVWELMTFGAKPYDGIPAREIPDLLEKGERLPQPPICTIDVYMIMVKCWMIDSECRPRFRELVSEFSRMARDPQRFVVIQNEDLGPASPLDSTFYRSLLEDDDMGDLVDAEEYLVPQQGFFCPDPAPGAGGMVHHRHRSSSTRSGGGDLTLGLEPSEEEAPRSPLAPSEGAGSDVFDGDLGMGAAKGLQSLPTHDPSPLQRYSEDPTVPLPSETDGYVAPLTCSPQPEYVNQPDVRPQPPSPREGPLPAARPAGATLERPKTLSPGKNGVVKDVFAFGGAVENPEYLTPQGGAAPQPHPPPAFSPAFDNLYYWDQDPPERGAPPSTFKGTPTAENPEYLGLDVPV
Procedure: as §1

[4] = target: T3, CDK9 (Homo sapiens, UniProt P50750); experiment: KINOMEscan; type: binding; details: 10000 nM; read-out: Percent Control
T3 construct: purchased DiscoverX KINOMEscan scanEDGE; Eurofins Cerep SafetyScreen87
Procedure: as §1

[5] = target: T4, AKT1 (Homo sapiens, UniProt P31749); experiment: KINOMEscan; type: binding; details: 10000 nM; read-out: Percent Control
T4 construct: purchased DiscoverX KINOMEscan scanEDGE; Eurofins Cerep SafetyScreen87
Procedure: as §1

[6] = target: T5, PIM1 (Homo sapiens, UniProt P11309); experiment: KINOMEscan; type: binding; details: 10000 nM; read-out: Percent Control
T5 construct: purchased DiscoverX KINOMEscan scanEDGE; Eurofins Cerep SafetyScreen87
Procedure: as §1

[7] = target: T6, p38-beta (Homo sapiens, UniProt Q15759); experiment: KINOMEscan; type: binding; details: 10000 nM; read-out: Percent Control
T6 construct: purchased DiscoverX KINOMEscan scanEDGE; Eurofins Cerep SafetyScreen87
Procedure: as §1

[8] = target: T7, MAP3K4 (Homo sapiens, UniProt Q9Y6R4); experiment: KINOMEscan; type: binding; details: 10000 nM; read-out: Percent Control
T7 construct: purchased DiscoverX KINOMEscan scanEDGE; Eurofins Cerep SafetyScreen87
Procedure: as §1

[9] = target: T8, FAK (Homo sapiens, UniProt Q05397); experiment: KINOMEscan; type: binding; details: 10000 nM; read-out: Percent Control
T8 construct: purchased DiscoverX KINOMEscan scanEDGE; Eurofins Cerep SafetyScreen87
Procedure: as §1

[10] = target: T9, FGFR2 (Homo sapiens, UniProt P21802); experiment: KINOMEscan; type: binding; details: 10000 nM; read-out: Percent Control
T9 construct: purchased DiscoverX KINOMEscan scanEDGE; Eurofins Cerep SafetyScreen87
Procedure: as §1

[11] = target: T10, JNK1 (Homo sapiens, UniProt P45983); experiment: KINOMEscan; type: binding; details: 10000 nM; read-out: Percent Control
T10 construct: purchased DiscoverX KINOMEscan scanEDGE; Eurofins Cerep SafetyScreen87
T10 sequence (P45983 whole entry): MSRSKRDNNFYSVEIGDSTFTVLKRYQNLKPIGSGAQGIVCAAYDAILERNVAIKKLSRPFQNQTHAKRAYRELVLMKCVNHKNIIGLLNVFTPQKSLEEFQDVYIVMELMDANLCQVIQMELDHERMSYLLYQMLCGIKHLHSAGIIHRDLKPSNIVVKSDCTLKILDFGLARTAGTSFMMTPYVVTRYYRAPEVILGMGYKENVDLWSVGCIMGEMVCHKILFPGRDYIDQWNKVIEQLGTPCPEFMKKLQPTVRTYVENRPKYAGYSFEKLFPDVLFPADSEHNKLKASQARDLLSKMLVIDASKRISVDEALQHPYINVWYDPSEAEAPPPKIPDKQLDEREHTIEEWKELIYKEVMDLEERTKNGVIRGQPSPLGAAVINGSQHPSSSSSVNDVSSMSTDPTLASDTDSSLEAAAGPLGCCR
Procedure: as §1

[12] = target: T11, ABL1(T315I)-phosphorylated (Homo sapiens, UniProt P00519, T315I); experiment: KINOMEscan; type: binding; details: 10000 nM; read-out: Percent Control
T11 construct: purchased DiscoverX KINOMEscan scanEDGE; Eurofins Cerep SafetyScreen87
Procedure: as §1

[13] = target: T12, JAK3(JH1domain-catalytic) (Homo sapiens, UniProt P52333); experiment: KINOMEscan; type: binding; details: 10000 nM; read-out: Percent Control
T12 construct: JAK3(JH1domain-catalytic); purchased DiscoverX KINOMEscan scanEDGE; Eurofins Cerep SafetyScreen87
Procedure: as §1

[14] = target: T13, PAK2 (Homo sapiens, UniProt Q13177); experiment: KINOMEscan; type: binding; details: 10000 nM; read-out: Percent Control
T13 construct: purchased DiscoverX KINOMEscan scanEDGE; Eurofins Cerep SafetyScreen87
Procedure: as §1

[15] = target: T14, CDK7 (Homo sapiens, UniProt P50613); experiment: KINOMEscan; type: binding; details: 10000 nM; read-out: Percent Control
T14 construct: purchased DiscoverX KINOMEscan scanEDGE; Eurofins Cerep SafetyScreen87
Procedure: as §1

[16] = target: T15, ALK (Homo sapiens, UniProt Q9UM73); experiment: KINOMEscan; type: binding; details: 10000 nM; read-out: Percent Control
T15 construct: purchased DiscoverX KINOMEscan scanEDGE; Eurofins Cerep SafetyScreen87
Procedure: as §1

[17] = target: T16, BMPR2 (Homo sapiens, UniProt Q13873); experiment: KINOMEscan; type: binding; details: 10000 nM; read-out: Percent Control
T16 construct: purchased DiscoverX KINOMEscan scanEDGE; Eurofins Cerep SafetyScreen87
Procedure: as §1

[18] = target: T17, CSNK1G2 (Homo sapiens, UniProt P78368); experiment: KINOMEscan; type: binding; details: 10000 nM; read-out: Percent Control
T17 construct: purchased DiscoverX KINOMEscan scanEDGE; Eurofins Cerep SafetyScreen87
Procedure: as §1

[19] = target: T18, AKT2 (Homo sapiens, UniProt P31751); experiment: KINOMEscan; type: binding; details: 10000 nM; read-out: Percent Control
T18 construct: purchased DiscoverX KINOMEscan scanEDGE; Eurofins Cerep SafetyScreen87
Procedure: as §1

[20] = target: T19, IKK-beta (Homo sapiens, UniProt O14920); experiment: KINOMEscan; type: binding; details: 10000 nM; read-out: Percent Control
T19 construct: purchased DiscoverX KINOMEscan scanEDGE; Eurofins Cerep SafetyScreen87
Procedure: as §1

[21] = target: T20, PLK4 (Homo sapiens, UniProt O00444); experiment: KINOMEscan; type: binding; details: 10000 nM; read-out: Percent Control
T20 construct: purchased DiscoverX KINOMEscan scanEDGE; Eurofins Cerep SafetyScreen87
T20 sequence (O00444 whole entry): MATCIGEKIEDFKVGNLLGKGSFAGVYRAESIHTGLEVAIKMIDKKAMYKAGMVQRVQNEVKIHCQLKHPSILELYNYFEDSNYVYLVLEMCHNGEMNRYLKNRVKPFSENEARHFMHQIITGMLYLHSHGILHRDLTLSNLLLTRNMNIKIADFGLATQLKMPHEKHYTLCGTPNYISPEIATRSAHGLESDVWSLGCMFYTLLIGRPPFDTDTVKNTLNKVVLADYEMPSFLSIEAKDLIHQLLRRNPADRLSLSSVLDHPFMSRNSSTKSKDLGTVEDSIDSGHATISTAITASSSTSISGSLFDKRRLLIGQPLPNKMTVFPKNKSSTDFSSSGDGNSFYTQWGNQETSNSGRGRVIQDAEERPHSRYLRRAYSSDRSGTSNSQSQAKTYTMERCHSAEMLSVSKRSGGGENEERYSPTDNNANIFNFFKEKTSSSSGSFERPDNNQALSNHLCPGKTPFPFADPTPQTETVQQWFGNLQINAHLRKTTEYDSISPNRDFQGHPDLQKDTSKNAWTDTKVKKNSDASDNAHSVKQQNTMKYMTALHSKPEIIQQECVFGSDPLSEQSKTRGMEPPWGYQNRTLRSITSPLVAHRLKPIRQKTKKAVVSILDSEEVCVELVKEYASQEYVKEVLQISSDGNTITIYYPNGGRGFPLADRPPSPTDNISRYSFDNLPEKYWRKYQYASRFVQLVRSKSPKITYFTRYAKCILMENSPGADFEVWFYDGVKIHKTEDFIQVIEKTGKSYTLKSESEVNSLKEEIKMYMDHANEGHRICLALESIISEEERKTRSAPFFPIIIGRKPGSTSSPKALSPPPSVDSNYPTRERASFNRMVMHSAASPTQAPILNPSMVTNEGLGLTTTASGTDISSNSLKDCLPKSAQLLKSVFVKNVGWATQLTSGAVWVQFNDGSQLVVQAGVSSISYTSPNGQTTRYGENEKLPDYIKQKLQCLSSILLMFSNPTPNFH
Procedure: as §1

[22] = target: T21, ERK1 (Homo sapiens, UniProt P27361); experiment: KINOMEscan; type: binding; details: 10000 nM; read-out: Percent Control
T21 construct: purchased DiscoverX KINOMEscan scanEDGE; Eurofins Cerep SafetyScreen87
Procedure: as §1

[23] = target: T22, CSNK1D (Homo sapiens, UniProt P48730); experiment: KINOMEscan; type: binding; details: 10000 nM; read-out: Percent Control
T22 construct: purchased DiscoverX KINOMEscan scanEDGE; Eurofins Cerep SafetyScreen87
Procedure: as §1

[24] = target: T23, TSSK1B (Homo sapiens, UniProt Q9BXA7); experiment: KINOMEscan; type: binding; details: 10000 nM; read-out: Percent Control
T23 construct: purchased DiscoverX KINOMEscan scanEDGE; Eurofins Cerep SafetyScreen87
Procedure: as §1

[25] = target: T24, MLK1 (Homo sapiens, UniProt P80192); experiment: KINOMEscan; type: binding; details: 10000 nM; read-out: Percent Control
T24 construct: purchased DiscoverX KINOMEscan scanEDGE; Eurofins Cerep SafetyScreen87
Procedure: as §1

[26] = target: T25, MARK3 (Homo sapiens, UniProt P27448); experiment: KINOMEscan; type: binding; details: 10000 nM; read-out: Percent Control
T25 construct: purchased DiscoverX KINOMEscan scanEDGE; Eurofins Cerep SafetyScreen87
Procedure: as §1

[27] = target: T26, MKNK2 (Homo sapiens, UniProt Q9HBH9); experiment: KINOMEscan; type: binding; details: 10000 nM; read-out: Percent Control
T26 construct: purchased DiscoverX KINOMEscan scanEDGE; Eurofins Cerep SafetyScreen87
Procedure: as §1

[28] = target: T27, MEK2 (Homo sapiens, UniProt P36507); experiment: KINOMEscan; type: binding; details: 10000 nM; read-out: Percent Control
T27 construct: purchased DiscoverX KINOMEscan scanEDGE; Eurofins Cerep SafetyScreen87
Procedure: as §1

[29] = target: T28, PLK1 (Homo sapiens, UniProt P53350); experiment: KINOMEscan; type: binding; details: 10000 nM; read-out: Percent Control
T28 construct: purchased DiscoverX KINOMEscan scanEDGE; Eurofins Cerep SafetyScreen87
Procedure: as §1

[30] = target: T29, MET (Homo sapiens, UniProt P08581); experiment: KINOMEscan; type: binding; details: 10000 nM; read-out: Percent Control
T29 construct: purchased DiscoverX KINOMEscan scanEDGE; Eurofins Cerep SafetyScreen87
T29 sequence (P08581 25-1390): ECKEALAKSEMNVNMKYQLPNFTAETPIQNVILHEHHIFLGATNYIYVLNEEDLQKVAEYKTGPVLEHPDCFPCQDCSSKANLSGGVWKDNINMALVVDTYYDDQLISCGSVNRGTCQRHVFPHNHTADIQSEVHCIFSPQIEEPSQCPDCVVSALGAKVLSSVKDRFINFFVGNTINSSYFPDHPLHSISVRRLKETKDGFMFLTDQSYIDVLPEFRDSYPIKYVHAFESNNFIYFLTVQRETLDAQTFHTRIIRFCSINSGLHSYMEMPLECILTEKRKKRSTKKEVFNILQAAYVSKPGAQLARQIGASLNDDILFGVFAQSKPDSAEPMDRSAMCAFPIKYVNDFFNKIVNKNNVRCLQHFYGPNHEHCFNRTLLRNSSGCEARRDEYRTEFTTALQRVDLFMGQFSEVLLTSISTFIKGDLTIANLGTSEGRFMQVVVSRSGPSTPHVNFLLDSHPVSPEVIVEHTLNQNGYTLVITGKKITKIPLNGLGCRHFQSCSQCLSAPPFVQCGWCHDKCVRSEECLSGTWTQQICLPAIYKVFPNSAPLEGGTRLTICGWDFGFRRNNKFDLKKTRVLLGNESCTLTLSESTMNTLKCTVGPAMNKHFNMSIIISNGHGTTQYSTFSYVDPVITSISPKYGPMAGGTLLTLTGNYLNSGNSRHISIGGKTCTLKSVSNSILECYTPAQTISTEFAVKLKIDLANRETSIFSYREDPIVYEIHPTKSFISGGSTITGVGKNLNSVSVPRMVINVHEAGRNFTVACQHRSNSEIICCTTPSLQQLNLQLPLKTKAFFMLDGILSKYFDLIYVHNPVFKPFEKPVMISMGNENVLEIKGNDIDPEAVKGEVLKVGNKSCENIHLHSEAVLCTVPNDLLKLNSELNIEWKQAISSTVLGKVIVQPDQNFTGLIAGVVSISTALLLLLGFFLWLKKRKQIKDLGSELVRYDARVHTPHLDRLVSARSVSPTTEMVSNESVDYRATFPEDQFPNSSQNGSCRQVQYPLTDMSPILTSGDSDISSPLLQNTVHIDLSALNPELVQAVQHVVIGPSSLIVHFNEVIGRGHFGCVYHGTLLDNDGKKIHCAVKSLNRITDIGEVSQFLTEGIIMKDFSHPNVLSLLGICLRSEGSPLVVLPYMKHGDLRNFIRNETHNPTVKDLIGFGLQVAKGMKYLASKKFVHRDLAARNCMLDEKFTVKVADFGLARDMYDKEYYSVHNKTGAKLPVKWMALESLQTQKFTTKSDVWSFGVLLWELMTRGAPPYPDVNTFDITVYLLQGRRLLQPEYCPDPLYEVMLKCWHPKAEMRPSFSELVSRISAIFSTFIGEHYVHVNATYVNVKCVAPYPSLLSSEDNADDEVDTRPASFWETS
Procedure: as §1

[31] = target: T30, BRAF(V600E) (Homo sapiens, UniProt P15056, V600E); experiment: KINOMEscan; type: binding; details: 10000 nM; read-out: Percent Control
T30 construct: purchased DiscoverX KINOMEscan scanEDGE; Eurofins Cerep SafetyScreen87
Procedure: as §1

[32] = target: T31, ABL1-phosphorylated (Homo sapiens, UniProt P00519); experiment: KINOMEscan; type: binding; details: 10000 nM; read-out: Percent Control
T31 construct: purchased DiscoverX KINOMEscan scanEDGE; Eurofins Cerep SafetyScreen87
Procedure: as §1

[33] = target: T32, PAK4 (Homo sapiens, UniProt O96013); experiment: KINOMEscan; type: binding; details: 10000 nM; read-out: Percent Control
T32 construct: purchased DiscoverX KINOMEscan scanEDGE; Eurofins Cerep SafetyScreen87
Procedure: as §1

[34] = target: T33, TIE2 (Homo sapiens, UniProt Q02763); experiment: KINOMEscan; type: binding; details: 10000 nM; read-out: Percent Control
T33 construct: purchased DiscoverX KINOMEscan scanEDGE; Eurofins Cerep SafetyScreen87
Procedure: as §1

[35] = target: T34, JAK2(JH1domain-catalytic) (Homo sapiens, UniProt O60674); experiment: KINOMEscan; type: binding; details: 10000 nM; read-out: Percent Control
T34 construct: JAK2(JH1domain-catalytic); purchased DiscoverX KINOMEscan scanEDGE; Eurofins Cerep SafetyScreen87
Procedure: as §1

**Q.** Which results are given for `CNc1ccc(NCCc2ccccc2OC)cc1.Cl` [KDS12025, N^1-(2-methoxyphenethyl)-N^4-methylbenzene-1,4-diamine hydrochloride salt]?
**A.** increase of median survival ([1]; 0.1 and 1 mg/kg/day ad libitum from 14 months): ~ 14%; adverse effects during chronic administration ([1]; 22-month administration, 0.1 and 1 mg/kg/day): no apparent adverse effects were observed; female mice surviving at 31 months ([1]; KDS12025 groups, when all control mice had died): 46.7%; remaining binding at 10 µM [2]: 95%; remaining binding at 10 µM [3]: 100%; remaining binding at 10 µM [4]: 83%; remaining binding at 10 µM [5]: 75%; remaining binding at 10 µM [6]: 95%; remaining binding at 10 µM [7]: 100%; remaining binding at 10 µM [8]: 100%; remaining binding at 10 µM [9]: 100%; remaining binding at 10 µM [10]: 87%; remaining binding at 10 µM [11]: 75%; remaining binding at 10 µM [12]: 84%; remaining binding at 10 µM [13]: 76%; remaining binding at 10 µM [14]: 94%; remaining binding at 10 µM [15]: 89%; remaining binding at 10 µM [16]: 98%; remaining binding at 10 µM [17]: 92%; remaining binding at 10 µM [18]: 45%; remaining binding at 10 µM [19]: 94%; remaining binding at 10 µM [20]: 100%; remaining binding at 10 µM [21]: 77%; remaining binding at 10 µM [22]: 83%; remaining binding at 10 µM [23]: 88%; remaining binding at 10 µM [24]: 45%; remaining binding at 10 µM [25]: 79%; remaining binding at 10 µM [26]: 66%; remaining binding at 10 µM [27]: 95%; remaining binding at 10 µM [28]: 91%; remaining binding at 10 µM [29]: 100%; remaining binding at 10 µM [30]: 82%; remaining binding at 10 µM [31]: 100%; remaining binding at 10 µM [32]: 100%; remaining binding at 10 µM [33]: 100%; remaining binding at 10 µM [34]: 100%; remaining binding at 10 µM [35]: 100%
